Reference: patent US12551458B2, “Topical pharmaceutical composition containing phospholipids” (EGIS GYÓGYSZERGYÁR ZRT., priority 2021, dated 2026)

Tests used:
[1] = test system: allodynia in nerve-ligated mice; conditions: cited from earlier work
pain = conditions: compositions containing 1 and 3% of pregabalin; cited from earlier work
[2] = Solubility of pregabalin in solvents; conditions: any solvents
[3] = test system: CCI operated paw of rats (neuropathic pain); assay: Rat chronic constriction injury (CCI) model, paw withdrawal threshold with electronic von Frey device; type: in vivo, Wistar rats; conditions: oral 16.66 mg/kg
From the text: Furthermore, based on the article Bennett G J, at al (Pain., A peripheral mononeuropathy in rat that produces disorders of pain sensation like those seen in man. 1988 April; 33(1):87-107) we have developed a method for the examination of the compositions of the present invention. Thus, we have examined the compositions according to the present invention also with a different model for measuring the alleviation of the peripheral neuropathic pain also. Namely, we have carried out examinations on rats using Chronic constriction injury (CCI) model. Three weeks following nerve injury rats were assessed for hind paw mechanical withdrawal thresholds. The paw withdrawal threshold (PWT) was determined with an Electronic von Frey device according to the modified up-down method of Dixon (Efficient analysis of experimental observations., Annu Rev Pharmacol Toxicol. 1980; 20:441-62). […] The method and results are shown in example 3 and on FIG. 9.
Briefly, under isoflurane anesthesia small blunt dissection was made into the skin of rat right thigh then three loosely constrictive ligatures were placed around common sciatic nerve (chronic constriction injury CCI). Three weeks following nerve injury rats were assessed for hind paw mechanical withdrawal thresholds. […]

[4] = Pharmacokinetic studies in rats (blood levels of pregabalin)
[5] = test system: neuropathic pain in a human patient; conditions: topical aqueous solution; cited from earlier work

## CC(C)C[C@H](CN)CC(=O)O [pregabalin]
[1]; topical 2.5% aqueous solution without other ingredients
  Time of maximum allodynia alleviating effect: 1 h
[1]; topical 2.5% aqueous solution
  Alleviating effect after 3 hours and 6 hours: essentially disappeared
pain
  Time after which the pain alleviation effect decreased: 1.5 to 2 h
[2]
  Solubility: poor
[3]
  Reduction of hypersensitivity after oral administration: not able to reduce hypersensitivity
[4]; oral 16.66 mg/kg
  Blood levels after oral administration: relatively high blood levels
[4]; topical treatment
  Amount entering the bloodstream during topical treatment: very small amounts
[5]
  Time for which neuropathic pain was reduced: 6 h
